Measurements reported in patent publication US7659245B2, “Macrocylic inhibitors of hepatitis C virus” (Tibotec Pharmaceuticals Ltd, priority 2005, dated 2010).

Columns and labels:
[1] = system: HCV replicons (Huh-7 luc/neo cells, NS3-NS5B regions of HCV type 1b); test: Replicon assay: inhibition of HCV RNA replication in Huh-Luc cells (luciferase read-out); type: cell-based; conditions: Hepatitis C virus, Huh-7, 72 h, HCV type 1b replicon, luciferase activity after three days
Method: The in vitro antiviral activity against HCV of the compounds of formula (I) was tested in a cellular HCV replicon system based on Lohmann et al. (1999) Science 285:110-113, with the further modifications described by Krieger et al. (2001) Journal of Virology 75: 4614-4624 (incorporated herein by reference), which is further exemplified in the examples section. This model, while not a complete infection model for HCV, is widely accepted as the most robust and efficient model of autonomous HCV RNA replication currently available. […] It will be appreciated that it is important to distinguish between compounds that specifically interfere with HCV functions from those that exert cytotoxic or cytostatic effects in the HCV replicon model, and as a consequence cause a decrease in HCV RNA or linked reporter enzyme concentration. Assays are known in the field for the evaluation of cellular cytotoxicity based for example on the activity of mitochondrial enzymes using fluorogenic redox dyes such as resazurin. Furthermore, cellular counter screens exist for the evaluation of non-selective inhibition of linked reporter gene activity, such as firefly luciferase. Appropriate cell types can be equipped by stable transfection with a luciferase reporter gene whose expression is dependent on a constitutively active gene promoter, and such cells can be used as a counter-screen to eliminate non-selective inhibitors.
The compounds of formula (I) were examined for activity in the inhibition of HCV RNA replication in a cellular assay. […] The cellular assay was based on a bicistronic expression construct, as described by Lohmann et al. (1999) Science vol. 285 pp. 110-113 with modifications described by Krieger et al. (2001) Journal of Virology 75: 4614-4624, in a multi-target screening strategy. In essence, the method was as follows.
The assay utilized the stably transfected cell line Huh-7 luc/neo (hereafter referred to as Huh-Luc). This cell line harbors an RNA encoding a bicistronic expression construct comprising the wild type NS3-NS5B regions of HCV type 1b translated from an Internal Ribosome Entry Site (IRES) from encephalomyocarditis virus (EMCV), preceded by a reporter portion (FfL-luciferase), and a selectable marker portion (neo^R, neomycine phosphotransferase). The construct is bordered by 5′ and 3′ NTRs (non-translated regions) from HCV type 1b. Continued culture of the replicon cells in the presence of G418 (neo^R) is dependent on the replication of the HCV RNA. The stably transfected replicon cells that express HCV RNA, which replicates autonomously and to high levels, encoding inter alia luciferase, are used for screening the antiviral compounds.
The replicon cells were plated in 384 well plates in the presence of the test and control compounds which were added in various concentrations. Following an incubation of three days, HCV replication was measured by assaying luciferase activity (using standard luciferase assay substrates and reagents and a Perkin Elmer ViewLux™ ultraHTS microplate imager). Replicon cells in the control cultures have high luciferase expression in the absence of any inhibitor. The inhibitory activity of the compound on luciferase activity was monitored on the Huh-Luc cells, enabling a dose-response curve for each test compound. EC50 values were then calculated, which value represents the amount of the compound required to decrease by 50% the level of detected luciferase activity, or more specifically, the ability of the genetically linked HCV replicon RNA to replicate.

[2] = target: full-length hepatitis C NS3 protease enzyme (HCV NS3/4A protease complexes) (Hepatitis C virus genotype 1a, UniProt P27958); test: Inhibition assay (enzymatic assay) of HCV NS3/4A protease; type: biochemical; conditions: enzyme 1 nM, 25 μM NS4A cofactor, 0.5 μM depsipeptide substrate, 30° C., competitive model
Chain of full-length hepatitis C NS3 protease enzyme (HCV NS3/4A protease complexes) (P27958 1027-1657, one chain of several): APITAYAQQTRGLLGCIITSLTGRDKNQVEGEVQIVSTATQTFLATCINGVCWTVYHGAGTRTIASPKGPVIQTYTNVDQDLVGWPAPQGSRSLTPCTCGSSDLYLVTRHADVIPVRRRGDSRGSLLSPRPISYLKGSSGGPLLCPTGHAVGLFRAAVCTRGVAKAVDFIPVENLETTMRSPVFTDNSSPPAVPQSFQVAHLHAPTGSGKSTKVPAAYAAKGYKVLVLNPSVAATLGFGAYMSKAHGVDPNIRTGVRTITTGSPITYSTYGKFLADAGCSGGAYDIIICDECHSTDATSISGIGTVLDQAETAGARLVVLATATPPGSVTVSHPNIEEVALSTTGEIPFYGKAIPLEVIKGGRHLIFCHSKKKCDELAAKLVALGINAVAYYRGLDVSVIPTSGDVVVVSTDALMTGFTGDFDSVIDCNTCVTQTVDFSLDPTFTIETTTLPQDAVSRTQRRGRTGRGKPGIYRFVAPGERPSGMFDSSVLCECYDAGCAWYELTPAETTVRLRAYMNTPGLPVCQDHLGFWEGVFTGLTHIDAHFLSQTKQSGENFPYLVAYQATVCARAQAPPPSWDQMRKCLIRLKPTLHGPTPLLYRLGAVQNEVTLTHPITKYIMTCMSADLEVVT
Method: The aim of this in vitro assay is to measure the inhibition of HCV NS3/4A protease complexes by the compounds of the present invention. This assay provides an indication of how effective compounds of the present invention would be in inhibiting HCV NS3/4A proteolytic activity.
The inhibition of full-length hepatitis C NS3 protease enzyme was measured essentially as described in Poliakov, 2002 Prot Expression & Purification 25 363 371. Briefly, the hydrolysis of a depsipeptide substrate, Ac-DED(Edans)EEAbuψ[COO]ASK(Dabcyl)-NH2 (AnaSpec, San José, USA), was measured spectrofluorometrically in the presence of a peptide cofactor, KKGSVVIVGRIVLSGK (Åke Engström, Department of Medical Biochemistry and Microbiology, Uppsala University, Sweden). [Landro, 1997 #Biochem 36 9340-9348]. The enzyme (1 nM) was incubated in 50 mM HEPES, pH 7.5, 10 mM DTT, 40% glycerol, 0.1% n-octyl-D-glucoside, with 25 μM NS4A cofactor and inhibitor at 30° C. for 10 min, whereupon the reaction was initiated by addition of 0.5 μM substrate. Inhibitors were dissolved in DMSO, sonicated for 30 sec. and vortexed. The solutions were stored at −20° C. between measurements.
The final concentration of DMSO in the assay sample was adjusted to 3.3%. The rate of hydrolysis was corrected for inner filter effects according to published procedures. [Liu, 1999 Analytical Biochemistry 267 331-335]. Ki values were estimated by non-linear regression analysis (GraFit, Erithacus Software, Staines, MX, UK), using a model for competitive inhibition and a fixed value for Km (0.15 μM). A minimum of two replicates was performed for all measurements.

Row | Structure (SMILES) | EC50 [1] | Ki [2]
1 | CN1CCCC/C=C\[C@@H]2C[C@@]2(C(=O)NS(=O)(=O)C2CC2)NC(=O)[C@@H]2C[C@@H](Oc3nc(N4CCCC4)nc4ccccc34)C[C@H]2C1=O [Compound 72, Cyclopropanesulfonic acid [13-methyl-2,14-dioxo-17-[2-pyrrolidin-1-yl)-quinazolin-4-yloxy]-3,13-diaza-tricyclo[13.3.0.0*4,6*]octadec-7-ene-4-carbonyl]-amide] | 200 to 990 nM | 0.1 to 4.9 nM
2 | CN1CCCC/C=C\[C@@H]2C[C@@]2(C(=O)NS(=O)(=O)C2CC2)NC(=O)[C@@H]2C[C@@H](Oc3nc(-c4ccc(C#N)cc4)nc4ccccc34)C[C@H]2C1=O [Compound 73, Cyclopropanesulfonic acid {17-[2-(4-cyano-phenyl)-quinazolin-4-yloxy]-13-methyl-2,14-dioxo-3,13-diaza-tricyclo[13.3.0.0*4,6*]octadec-7-ene-4-carbonyl}-amide] | > 10000 nM | 100 to 1000 nM
3 | COc1ccc2c(O[C@@H]3C[C@H]4C(=O)N[C@]5(C(=O)NS(=O)(=O)C6CC6)C[C@H]5/C=C\CCCCN(C)C(=O)[C@@H]4C3)nc(-c3ccccc3)nc2c1C [Compound 89, Cyclopropanesulfonic acid [17-(7-methoxy-8-methyl-2-phenyl-quinazolin-4-yloxy)-13-methyl-2,14-dioxo-3,13-diaza-tricyclo[13.3.0.0*4,6*]octadec-7-ene-4-carbnyl]-amide] | 0.5 to 199 nM | 0.1 to 4.9 nM
4 | COc1ccc2c(O[C@@H]3C[C@H]4C(=O)N[C@]5(C(=O)NS(=O)(=O)C6CC6)C[C@H]5/C=C\CCCCN(C)C(=O)N4C3)nc(-c3ccccc3)nc2c1C [Compound 94, Cyclopropanesulfonic acid [17-(7-methoxy-8-methyl-2-phenyl-quinazolin-4-yloxy)-13-methyl-2,14-dioxo-3,13,15-triaza-tricyclo[13.3.0.0*4,6*]octadec-7-ene-4-carbonyl]-amide] | 0.5 to 199 nM | 0.1 to 4.9 nM
5 | COc1ccc2c(O[C@@H]3C[C@H]4C(=O)NC5(C(=O)NS(=O)(=O)C6CC6)C[C@H]5/C=C\CCCCN(C)C(=O)N4C3)nc(-c3ccc(F)cc3)nc2c1C (some centres unmarked) [Compound 98, Cyclopropanesulfonic acid {17-[2-(4-fluoro-phenyl-(7-methoxy-8-methyl-quinazolin-4-yloxy)-13-methyl-2,14-dioxo-3,13,15-triaza-tricyclo[13.3.0.0*4,6*]octadec-7-ene-4-carbonyl}-amide] | 0.5 to 199 nM | 0.1 to 4.9 nM
6 | COc1ccc2c(O[C@@H]3C[C@H]4C(=O)N[C@]5(C(=O)NS(=O)(=O)C6CC6)C[C@H]5/C=C\CCCCCNC(=O)N4C3)nc(-c3ccc(F)cc3)nc2c1C [Compound 104, Cyclopropanesulfonic acid {18-[2-(4-fluoro-phenyl)-7-methoxy-8-methyl-quinazolin-4-yloxy]-2,15-dioxo-3,14,16-triaza-tricyclo[14.3.0.0*4,6*]nonadec-7-ene-4-carbonyl}-amide] | 0.5 to 199 nM | 0.1 to 4.9 nM
7 | COc1cc2nc(-c3ccccc3)nc(O[C@@H]3C[C@H]4C(=O)N[C@]5(C(=O)NS(=O)(=O)C6CC6)C[C@H]5/C=C\CCCCN(C)C(=O)[C@@H]4C3)c2cc1C [Compound 114] | 0.5 to 199 nM | 0.1 to 4.9 nM
8 | COc1ccc2c(O[C@@H]3C[C@H]4C(=O)N[C@]5(C(=O)NS(=O)(=O)C6CC6)C[C@H]5/C=C\CCCCN(C)C(=O)N4C3)nc(-c3cccc(C)n3)nc2c1C [Compound 119, Cyclopropanesulfonic acid {17-[7-methoxy-8-methyl-2-(6-methyl-pyridin-2-yl)-quinazolin-4-yloxy]-13-methyl-2,14-dioxo-3,13,15-triazatricyclo[13.3.0.0*4,6*]octadec-7-ene-4-carbonyl}-amide] | 0.5 to 199 nM | 0.1 to 4.9 nM
9 | COc1cc2nc(-c3ccccc3)nc(O[C@@H]3C[C@H]4C(=O)N[C@]5(C(=O)NS(=O)(=O)C6CC6)C[C@H]5/C=C\CCCCN(C)C(=O)N4C3)c2cc1C [Compound 121, Cyclopropanesulfonic acid [17-(7-methoxy-6-methyl-2-phenyl-quinazolin-4-yloxy)-13-methyl-2,14-dioxo-3,13,15-triaza-tricyclo[13.3.0.0*4,6*]octadec-7-ene-4-carbonyl]-amide] | 0.5 to 199 nM | 0.1 to 4.9 nM
10 | COc1ccc(-c2nc(O[C@@H]3C[C@H]4C(=O)N[C@]5(C(=O)NS(=O)(=O)C6CC6)C[C@H]5/C=C\CCCCN(C)C(=O)N4C3)c3ccc(OC)c(C)c3n2)cc1 [Compound 131, Cyclopropanesulfonic acid {17-[7-methoxy-2-(4-methoxy-phenyl)-8-methyl-quinazolin-4-yloxy]-13-methyl-2,14-dioxo-3,13,15-triaza-tricyclo[13.3.0.0*4,6*]-octadec-7-ene-4-carbonyl}-amide] | 0.5 to 199 nM | 0.1 to 4.9 nM
11 | COc1ccc(-c2nc(O[C@@H]3C[C@H]4C(=O)N[C@]5(C(=O)NS(=O)(=O)C6(C)CC6)C[C@H]5/C=C\CCCCN(C)C(=O)N4C3)c3ccc(OC)c(C)c3n2)cc1 [Compound 132, 1-Methyl-cyclopropanesulfonic acid {17-[7-methoxy-2-(4-methoxy-phenyl)-8-methyl-quinazolin-4-yloxy]-13-methyl-2,14-dioxo-3,13,15-triaza-tricyclo[13.3.0.0*4,6*]octadec-7-ene-4-carbonyl}-amide] | 0.5 to 199 nM | 0.1 to 4.9 nM
12 | COc1ccc(-c2nc(O[C@@H]3C[C@H]4C(=O)N[C@]5(C(=O)NS(=O)(=O)C6CC6)C[C@H]5/C=C\CCCCN(C)C(=O)[C@@H]4C3)c3ccc(OC)c(C)c3n2)cc1 [Compound 138, Cyclopropanesulfonic acid {17-[7-methoxy-2-(4-methoxy-phenyl)-8-methyl-quinazolin-4-yloxy]-13-methyl-2,14-dioxo-3,13-diaza-tricyclo[13.3.0.0*4,6*]octadec-7-ene-4-carbonyl}-amide] | 0.5 to 199 nM | 0.1 to 4.9 nM
13 | COc1ccc2c(O[C@@H]3C[C@H]4C(=O)N[C@]5(C(=O)NS(=O)(=O)C6CC6)C[C@H]5/C=C\CCCCN(C)C(=O)[C@@H]4C3)nc(-n3ccc(C(C)C)n3)nc2c1C [Compound 147, N-[17-[2-(3-isopropylpyrazol-1-yl)-7-methoxy-8-methylquinazolin-4-yloxy]-13-methyl-2,14-dioxo-3,13-diazatricyclo[13.3.0.0^4,6]octadec-7-ene-4-carbonyl](cyclo-propyl)sulfonamide] | 0.5 to 199 nM | 0.1 to 4.9 nM
